Data on 3 compounds can be found in PubChem BioAssay AID1259407 (Chemical Carcinogenesis Research Information System (CCRIS), 2018).

This data set relates to CCRIS mutagenicity, Ames/micronucleus/aberration tests. Kind of data set: CCRIS mutagenicity studies. The note with it: Test System: AMES SALMONELLA TYPHIMURIUM
Where [1] appears, read: Strain/Indicator: TA98, Metabolic Activation: NONE, Method: PREINCUBATION
The mark [2] stands for this setting: Strain/Indicator: TA98, Metabolic Activation: NONE, Method: STANDARD PLATE.
[3] abbreviates: Strain/Indicator: TA98, Metabolic Activation: RAT, LIVER, S-9, AROCLOR 1254, Method: STANDARD PLATE.
Setting [4] is: Strain/Indicator: TA100, Metabolic Activation: NONE, Method: PREINCUBATION

Structures are written as SMILES. Active and inactive are the calls of the source. No rule for the calls is given here.

For the compound `Cc1cc(=O)n(-c2ccccc2)n1C`, the mutagenic call runs as follows: (Strain/Indicator: TA97, Metabolic Activation: NONE, Method: STANDARD PLATE) “inactive; negative”; (Strain/Indicator: TA97, Metabolic Activation: RAT, LIVER, S-9, AROCLOR 1254, Method: STANDARD PLATE) “inactive; negative”; (Strain/Indicator: TA97A, Metabolic Activation: NONE, Method: STANDARD PLATE) “inactive; negative”; (Strain/Indicator: TA97A, Metabolic Activation: RAT LIVER S-9, PHENOBARBITAL, Method: STANDARD PLATE) “inactive; negative”; (Strain/Indicator: TA98, Metabolic Activation: GUINEA PIG, LIVER, S-9, PCB, Method: PREINCUBATION) “inactive; negative”; (Strain/Indicator: TA98, Metabolic Activation: HAMSTER, LIVER, S-9, PCB, Method: PREINCUBATION) “inactive; negative”. For the same compound, the mutagenic call by setting is: (Strain/Indicator: TA98, Metabolic Activation: MOUSE, LIVER, S-9, PCB, Method: PREINCUBATION) “inactive; negative”; under setting [1], “inactive; negative”; under setting [2], “inactive; negative”; (Strain/Indicator: TA98, Metabolic Activation: RAT LIVER S-9, PHENOBARBITAL, Method: STANDARD PLATE) “inactive; negative”; under setting [3], “inactive; negative”; (Strain/Indicator: TA98, Metabolic Activation: RAT, LIVER, S-9, PCB, Method: PREINCUBATION) “inactive; negative”. Besides, the mutagenic call reads like this: (Strain/Indicator: TA100, Metabolic Activation: GUINEA PIG, LIVER, S-9, PCB, Method: PREINCUBATION) “inactive; negative”; (Strain/Indicator: TA100, Metabolic Activation: HAMSTER, LIVER, S-9, PCB, Method: PREINCUBATION) “inactive; negative”; (Strain/Indicator: TA100, Metabolic Activation: MOUSE, LIVER, S-9, PCB, Method: PREINCUBATION) “inactive; negative”; under setting [4], “inactive; negative”; (Strain/Indicator: TA100, Metabolic Activation: NONE, Method: STANDARD PLATE) “inactive; negative”; (Strain/Indicator: TA100, Metabolic Activation: RAT LIVER S-9, PHENOBARBITAL, Method: STANDARD PLATE) “inactive; negative”. Besides, the mutagenic call by setting is: (Strain/Indicator: TA100, Metabolic Activation: RAT, LIVER, S-9, AROCLOR 1254, Method: STANDARD PLATE) “inactive; negative”; (Strain/Indicator: TA100, Metabolic Activation: RAT, LIVER, S-9, PCB, Method: PREINCUBATION) “inactive; negative”; (Strain/Indicator: TA102, Metabolic Activation: NONE, Method: STANDARD PLATE) “inactive; negative”; (Strain/Indicator: TA102, Metabolic Activation: RAT LIVER S-9, PHENOBARBITAL, Method: STANDARD PLATE) “inactive; negative”; (Strain/Indicator: TA102, Metabolic Activation: RAT, LIVER, S-9, AROCLOR 1254, Method: STANDARD PLATE) “inactive; negative”; (Strain/Indicator: TA104, Metabolic Activation: NONE, Method: STANDARD PLATE) “inactive; negative”. The mutagenic call (Strain/Indicator: TA104, Metabolic Activation: RAT, LIVER, S-9, AROCLOR 1254, Method: STANDARD PLATE) was “inactive; negative”.

For the compound `CC(C)c1ccccc1OP(=O)(Oc1ccccc1)Oc1ccccc1`, the mutagenic call (Strain/Indicator: TA97, Metabolic Activation: HAMSTER, LIVER, S-9, AROCLOR 1254 (10 OR 30%), Method: PREINCUBATION) is “inactive; negative”; the mutagenic call (Strain/Indicator: TA97, Metabolic Activation: NONE, Method: PREINCUBATION) is “inactive; negative”; the mutagenic call (Strain/Indicator: TA97, Metabolic Activation: RAT, LIVER, S-9, AROCLOR 1254 (10 OR 30%), Method: PREINCUBATION) was “inactive; negative”; the mutagenic call (Strain/Indicator: TA98, Metabolic Activation: HAMSTER, LIVER, S-9, AROCLOR 1254 (10 OR 30%), Method: PREINCUBATION) is “inactive; negative”; the mutagenic call under setting [1] was “inactive; negative”; the mutagenic call (Strain/Indicator: TA98, Metabolic Activation: RAT, LIVER, S-9, AROCLOR 1254 (10 OR 30%), Method: PREINCUBATION) was “inactive; negative”. The mutagenic call (Strain/Indicator: TA100, Metabolic Activation: HAMSTER, LIVER, S-9, AROCLOR 1254 (10 OR 30%), Method: PREINCUBATION) is “inactive; negative”; the mutagenic call under setting [4] is “inactive; negative”; the mutagenic call (Strain/Indicator: TA100, Metabolic Activation: RAT, LIVER, S-9, AROCLOR 1254 (10 OR 30%), Method: PREINCUBATION) is “inactive; negative”; the mutagenic call (Strain/Indicator: TA1535, Metabolic Activation: HAMSTER, LIVER, S-9, AROCLOR 1254 (10 OR 30%), Method: PREINCUBATION) was “inactive; negative”; the mutagenic call (Strain/Indicator: TA1535, Metabolic Activation: NONE, Method: PREINCUBATION) was “inactive; negative”; the mutagenic call (Strain/Indicator: TA1535, Metabolic Activation: RAT, LIVER, S-9, AROCLOR 1254 (10 OR 30%), Method: PREINCUBATION) was “inactive; negative”.

With `Nc1ccc(Sc2ccc([N+](=O)[O-])cc2)cc1`, the mutagenic call under setting [2] is “active; positive” and the mutagenic call under setting [3] was “active; positive”.
